From US6087131A, “β-glucosidase from filamentous fungi, and uses thereof” (Institut National de la Recherche Agronomique - I.N.R.A., priority 1995, dated 2000)

What was measured:
Assay type in all cases: biochemical
[1] = tested on: β-glucosidase BGI of A. oryzae (CBS 12559), molecular mass greater than 130,000; assay: Inhibition of β-glucosidase BGI activity by glucose or δ-gluconolactone, PNPG as substrate
Experimental: (§1) The assay of the β-glucosidase activity is carried out by incubating, for 20 minutes at 40° C., 1 volume of enzymatic sample with 1 volume of p-nitrophenol β-D-glucoside (PNPG) (4 mM in 100 mM acetate buffer, pH 4.4). The quantity of PNP (pnitrophenol) liberated is estimated by adding 6 volumes of 0.1 M Na2 CO3 and monitoring the absorbance reading at 400 nm. The enzymatic activity is expressed in nanokatals per ml (nkat/ml) of enzymatic solution. One nanokatal corresponds to the number of nanomoles of PNP liberated per second under the abovementioned conditions.
(§2) The residual enzymatic activity is estimated after incubating the mixture for 20 minutes at 40° C.

[2] = tested on: β-glucosidase BGII of A. oryzae (CBS 12559), exocellular, molecular mass about 30,000; assay: Inhibition of β-glucosidase BGII activity by glucose or δ-gluconolactone, PNPG as substrate; details: PNPG 4 mM, 20 minutes at 40° C.
Experimental: as §1, §2

[3] = target: T1, β-glucosidase of A. niger purified from the KLERZYME enzymatic preparation (Aspergillus niger, UniProt A2RAL4); assay: Inhibition of KLERZYME β-glucosidase activity by glucose or δ-gluconolactone, PNPG as substrate
T1 construct: purchased GIST-BROCADES, SECLIN, FRANCE
Experimental: as §1, §2

T1 sequence (A2RAL4 20-860): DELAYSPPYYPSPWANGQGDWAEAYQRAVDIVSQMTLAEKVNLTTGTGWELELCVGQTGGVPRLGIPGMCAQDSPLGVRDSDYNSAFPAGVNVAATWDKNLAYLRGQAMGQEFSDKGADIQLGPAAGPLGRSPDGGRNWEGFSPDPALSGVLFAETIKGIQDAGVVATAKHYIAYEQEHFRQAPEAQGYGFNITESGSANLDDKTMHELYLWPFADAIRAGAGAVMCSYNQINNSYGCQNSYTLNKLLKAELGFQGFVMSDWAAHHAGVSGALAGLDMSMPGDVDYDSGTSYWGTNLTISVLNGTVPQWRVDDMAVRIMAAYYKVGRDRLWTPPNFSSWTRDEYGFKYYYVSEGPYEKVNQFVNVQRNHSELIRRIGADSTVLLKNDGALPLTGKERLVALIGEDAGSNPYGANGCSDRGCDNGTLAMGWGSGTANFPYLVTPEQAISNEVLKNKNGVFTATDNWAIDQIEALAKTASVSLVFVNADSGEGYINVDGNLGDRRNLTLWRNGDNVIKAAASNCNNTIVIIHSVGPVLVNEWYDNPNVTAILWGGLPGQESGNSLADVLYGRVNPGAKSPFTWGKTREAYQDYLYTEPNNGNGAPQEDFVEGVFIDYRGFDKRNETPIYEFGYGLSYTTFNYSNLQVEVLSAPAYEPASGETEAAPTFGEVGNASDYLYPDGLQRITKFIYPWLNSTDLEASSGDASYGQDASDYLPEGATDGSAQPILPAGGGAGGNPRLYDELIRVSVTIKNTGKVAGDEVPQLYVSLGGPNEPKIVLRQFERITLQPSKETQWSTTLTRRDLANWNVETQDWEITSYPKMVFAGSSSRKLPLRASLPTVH

Row | Compound | activity remaining in the presence of glucose ([1]; 25 g/l of glucose, PNPG 4 mM, 20 minutes at 40° C.) | inhibition in the presence of glucose ([1]; 50 g/l of glucose, PNPG 4 mM, 20 minutes at 40° C.) | Ki ([1]; read-out: inhibition constant (Ki) for glucose, with respect to PNPG, Lineweaver-Burk representation, competitive inhibitor) | activity retained in the presence of glucose ([2]; 25 g/l of glucose) | inhibition in the presence of glucose ([2]; 100 g/l of glucose) | remaining activity at 25000 µg/mL ([3]; 20 min, pH 4.4, read-out: activity remaining in the presence of glucose) | inhibition in the presence of glucose ([3]; KLERZYME β-glucosidase, 50 g/l of glucose, PNPG 4 mM, 20 minutes at 40° C.) | inhibition in the presence of gluconolactone ([1]; 1 g/l of gluconolactone, PNPG 4 mM, 20 minutes at 40° C.) | activity retained in the presence of gluconolactone ([2]; 1 g/l of gluconolactone) | activity retained in the presence of gluconolactone ([2]; 10 g/l of gluconolactone) | inhibition in the presence of gluconolactone ([3]; KLERZYME β-glucosidase, 1 g/l of gluconolactone, PNPG 4 mM, 20 minutes at 40° C.)
1 | OC[C@H]1OC(O)[C@H](O)[C@@H](O)[C@@H]1O (some centres unmarked) [glucose] | about 15% | practically completely inhibited | 3.5 mM | about 80% | 57% | ~10% | practically completely inhibited | – | – | – | –
2 | O=C1O[C@H](CO)[C@@H](O)[C@H](O)[C@H]1O [gluconolactone, δ-gluconolactone] | – | – | – | – | – | – | – | practically completely inhibited | more than 30% | 20% | practically completely inhibited
